pEC50, pKi: −log10 of the molar value. Read-outs that look alike come from different tables or passages of the source.
Assays:
[1] = system: rodent behaviors; conditions: systemically administered
[2] = target: Bovine cardiac myosin (Bos taurus (Bovine), UniProt Q9BE39); experiment: Cardiac muscle myosin II actin-activated ATPase assay (NADH-coupled); format: biochemical; set-up: key to Ratio CMMII:NMII Ki/EC50: NMII-sel: no Ki value for cardiac myosin II could be determined; the compounds had no detectable inhibitory properties versus the cardiac myosin II; conditions: for CMMII/NMII Ratio: cardiac Ki relative to NMII EC50; for Ratio CMMII:NMII Ki/EC50: cardiac myosin II Ki over nonmuscle myosin II EC50
Outline: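 Inhibitory constants came from a quadratic one-to-one binding fit of 16-point dose-responses (highest final 50 uM, triplicate). Rates were NADH-calibrated fluorescence slopes over 30 min at 25° C, with 300 nM bovine cardiac myosin, 10 μM actin and 1 mM ATP coupled through PK/LDH in pH 7.0 MOPS buffer.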

[3] = target: Rabbit skeletal myosin; experiment: Skeletal muscle myosin II actin-activated ATPase assay; format: biochemical; conditions: 20 nM skeletal muscle myosin II; read-out: SKMMII KI
Outline: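 Inhibitory constants come from a quadratic one-site fit of 16-point, triplicate dose-response data, highest compound concentration 50 uM. Rates are slopes of NADH fluorescence decline over 30 min, coupling ATP turnover of 20 nM rabbit skeletal myosin II with 10 μM actin and 1 mM ATP via PK/LDH, pH 7.0, 25 °C.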

[4] = system: hiPS cardiomyocytes (Cor.4U CMs); experiment: Cardiac safety assay 1: beating parameters of cardiomyocytes (xCELLigence RTCA Cardio); format: cell-based, human; conditions: hiPS-derived cardiomyocytes
Experimental: The spontaneous contractions of cardiomyocytes (CMs) is measured label-free in real time using the ACEA xCELLigence RTCA Cardio instrument. All measurements are performed at 37° C. in a cell culture incubator, allowing for spontaneous beating of CMs at physiological conditions. Cor.4U CMs are seeded at 3×10^4 cells/well in 180 μl/well maintenance medium. Prior to seeding, a background impedance measurement (plate plus medium) is performed. The contraction of CMs involves cyclic modulation of cell morphology and adhesion inducing a delta change in impedance. From the cyclic changes in impedance a beating frequency, amplitude and effects on beating pattern can be calculated. Time point “0” (baseline) is recorded 10× for 20 seconds at 1 minute intervals. Thereafter, compounds and control (0.1% DMSO) are added to the wells and effects are measured 30 minutes later. Vehicle control is 0.1% DMSO and positive control is 100 nM isoproterenol. Compounds are tested at 0.1, 0.3, 1.0 and 3.0 uM. Data is collected at 5, 10, 15, 20 and 30 minutes, and 1, 4, 6, 12 and 24 hours post-incubation.

[5] = Photostability, percentage remaining undegraded under illumination or in the dark; conditions: for Photostability 4 hours: percentage remaining undegraded after 4 hours illumination; for Photostability 24 hours: percentage remaining undegraded after 24 hours illumination; for Photostability Dark (24 h): percentage remaining undegraded in the dark
[6] = target: nonmuscle myosin II (Chlorocebus sabaeus, UniProt A0A0D9RDH4); experiment: Cytokinesis cell-based assay of nonmuscle myosin II function in COS7 cells; conditions: read-out: NMII EC50
Experimental: Cytokinesis is a cell-based assay to assess nonmuscle myosin II function, performed using COS7 cells. The assay is run in a 96 well plate, with 2,000 cells plated per well. Total incubation time is 48 hours, with 24 hours of treatment with the compound of interest. Prior to treatment with small molecules, a two-fold dilution series of compound solutions is prepared in DMSO. Starting concentrations are determined based on compound solubility. Compound solutions are further diluted in DMEM medium to a final DMSO concentration of 2% (50-fold dilution). Subsequently, 100 μl diluted solution is transferred to each well of the plate containing 100 μl of cell culture (achieving 1% final DMSO concentration). All measurements are carried out in triplicate. Cells are stained by fluorescein diacetate (6 μM), a cell viability dye, the cell-permeant Hoescht33342 (10 μM) and the membrane-impermeant propidium iodide (4 μM) to label all nuclei and those belonging to dead cells, respectively. Dye solutions are replaced by fresh media after 10 minutes of incubation. An INCell Analyzer 6000 is used for imaging. […] Cytotoxicity is also assayed and quantified as the ratio of dead nuclei to total nuclei. […] Half maximal effective concentration (EC50) is determined by fitting the 6-point dose-response data to the Hill equation.

[7] = 300 nM cardiac myosin, 10 μM actin, 25° C., read-out: CMMII KI
[8] = cardiac muscle myosin II, read-out: CMMII Ki

Chain of Bovine cardiac myosin (Q9BE39 whole entry): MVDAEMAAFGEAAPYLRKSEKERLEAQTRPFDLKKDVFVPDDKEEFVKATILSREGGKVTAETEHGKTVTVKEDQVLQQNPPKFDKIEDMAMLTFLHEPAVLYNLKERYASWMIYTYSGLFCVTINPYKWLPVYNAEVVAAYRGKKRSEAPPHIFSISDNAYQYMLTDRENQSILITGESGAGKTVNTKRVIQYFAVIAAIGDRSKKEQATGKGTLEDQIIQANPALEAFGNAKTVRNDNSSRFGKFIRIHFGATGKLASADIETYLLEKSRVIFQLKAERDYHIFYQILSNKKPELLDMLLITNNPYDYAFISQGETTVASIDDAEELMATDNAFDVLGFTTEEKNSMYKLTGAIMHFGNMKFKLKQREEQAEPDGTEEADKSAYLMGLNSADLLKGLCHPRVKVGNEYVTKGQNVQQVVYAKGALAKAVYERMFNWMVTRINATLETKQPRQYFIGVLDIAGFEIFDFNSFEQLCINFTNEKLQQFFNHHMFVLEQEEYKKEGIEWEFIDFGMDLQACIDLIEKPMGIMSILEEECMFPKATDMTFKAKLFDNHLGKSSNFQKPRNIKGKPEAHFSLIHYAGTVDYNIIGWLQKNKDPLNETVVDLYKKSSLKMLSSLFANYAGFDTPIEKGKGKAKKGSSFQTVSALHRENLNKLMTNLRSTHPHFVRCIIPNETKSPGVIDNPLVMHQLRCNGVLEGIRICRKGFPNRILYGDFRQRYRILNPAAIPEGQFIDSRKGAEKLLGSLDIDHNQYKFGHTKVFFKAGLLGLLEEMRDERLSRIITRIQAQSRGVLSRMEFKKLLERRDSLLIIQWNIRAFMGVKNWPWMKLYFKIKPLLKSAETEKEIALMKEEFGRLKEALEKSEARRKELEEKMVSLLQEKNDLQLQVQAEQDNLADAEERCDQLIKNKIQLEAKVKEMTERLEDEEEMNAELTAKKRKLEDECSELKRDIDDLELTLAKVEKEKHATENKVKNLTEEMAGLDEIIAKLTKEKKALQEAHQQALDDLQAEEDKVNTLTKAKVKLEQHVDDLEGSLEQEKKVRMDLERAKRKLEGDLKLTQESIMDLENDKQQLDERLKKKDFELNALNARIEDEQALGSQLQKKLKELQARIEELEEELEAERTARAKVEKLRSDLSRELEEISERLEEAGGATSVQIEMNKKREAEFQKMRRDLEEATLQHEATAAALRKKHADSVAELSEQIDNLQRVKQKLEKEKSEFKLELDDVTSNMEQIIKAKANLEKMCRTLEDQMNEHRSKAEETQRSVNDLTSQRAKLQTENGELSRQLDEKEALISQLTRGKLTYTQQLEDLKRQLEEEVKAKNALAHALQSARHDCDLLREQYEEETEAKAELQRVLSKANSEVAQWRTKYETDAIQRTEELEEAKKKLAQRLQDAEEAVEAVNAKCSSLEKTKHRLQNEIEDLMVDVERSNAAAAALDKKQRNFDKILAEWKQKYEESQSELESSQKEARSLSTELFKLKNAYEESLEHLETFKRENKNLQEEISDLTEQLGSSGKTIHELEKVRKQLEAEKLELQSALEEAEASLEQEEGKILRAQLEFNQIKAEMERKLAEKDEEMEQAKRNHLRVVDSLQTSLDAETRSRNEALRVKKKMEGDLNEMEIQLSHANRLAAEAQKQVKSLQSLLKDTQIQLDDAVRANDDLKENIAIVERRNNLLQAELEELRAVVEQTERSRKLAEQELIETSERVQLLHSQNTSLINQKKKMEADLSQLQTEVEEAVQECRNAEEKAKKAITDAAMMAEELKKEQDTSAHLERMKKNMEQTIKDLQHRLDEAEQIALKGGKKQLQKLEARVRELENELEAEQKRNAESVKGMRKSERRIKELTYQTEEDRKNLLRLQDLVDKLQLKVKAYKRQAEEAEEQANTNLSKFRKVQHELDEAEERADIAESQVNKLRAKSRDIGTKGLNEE
Chain of Bovine cardiac myosin (P85100 whole entry partner): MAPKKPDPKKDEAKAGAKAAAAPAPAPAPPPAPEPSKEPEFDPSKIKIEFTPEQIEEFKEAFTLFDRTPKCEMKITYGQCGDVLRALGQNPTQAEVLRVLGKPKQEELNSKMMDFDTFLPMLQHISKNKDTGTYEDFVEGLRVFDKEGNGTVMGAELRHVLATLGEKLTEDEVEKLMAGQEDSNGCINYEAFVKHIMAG
Chain of Bovine cardiac myosin (Q3SZE5 whole entry partner): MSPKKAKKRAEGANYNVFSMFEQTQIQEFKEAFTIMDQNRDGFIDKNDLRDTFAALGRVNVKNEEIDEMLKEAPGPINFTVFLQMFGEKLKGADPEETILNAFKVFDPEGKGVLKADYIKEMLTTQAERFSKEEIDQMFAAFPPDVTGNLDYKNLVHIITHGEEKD
Chain of nonmuscle myosin II (A0A0D9RDH4 1-1976): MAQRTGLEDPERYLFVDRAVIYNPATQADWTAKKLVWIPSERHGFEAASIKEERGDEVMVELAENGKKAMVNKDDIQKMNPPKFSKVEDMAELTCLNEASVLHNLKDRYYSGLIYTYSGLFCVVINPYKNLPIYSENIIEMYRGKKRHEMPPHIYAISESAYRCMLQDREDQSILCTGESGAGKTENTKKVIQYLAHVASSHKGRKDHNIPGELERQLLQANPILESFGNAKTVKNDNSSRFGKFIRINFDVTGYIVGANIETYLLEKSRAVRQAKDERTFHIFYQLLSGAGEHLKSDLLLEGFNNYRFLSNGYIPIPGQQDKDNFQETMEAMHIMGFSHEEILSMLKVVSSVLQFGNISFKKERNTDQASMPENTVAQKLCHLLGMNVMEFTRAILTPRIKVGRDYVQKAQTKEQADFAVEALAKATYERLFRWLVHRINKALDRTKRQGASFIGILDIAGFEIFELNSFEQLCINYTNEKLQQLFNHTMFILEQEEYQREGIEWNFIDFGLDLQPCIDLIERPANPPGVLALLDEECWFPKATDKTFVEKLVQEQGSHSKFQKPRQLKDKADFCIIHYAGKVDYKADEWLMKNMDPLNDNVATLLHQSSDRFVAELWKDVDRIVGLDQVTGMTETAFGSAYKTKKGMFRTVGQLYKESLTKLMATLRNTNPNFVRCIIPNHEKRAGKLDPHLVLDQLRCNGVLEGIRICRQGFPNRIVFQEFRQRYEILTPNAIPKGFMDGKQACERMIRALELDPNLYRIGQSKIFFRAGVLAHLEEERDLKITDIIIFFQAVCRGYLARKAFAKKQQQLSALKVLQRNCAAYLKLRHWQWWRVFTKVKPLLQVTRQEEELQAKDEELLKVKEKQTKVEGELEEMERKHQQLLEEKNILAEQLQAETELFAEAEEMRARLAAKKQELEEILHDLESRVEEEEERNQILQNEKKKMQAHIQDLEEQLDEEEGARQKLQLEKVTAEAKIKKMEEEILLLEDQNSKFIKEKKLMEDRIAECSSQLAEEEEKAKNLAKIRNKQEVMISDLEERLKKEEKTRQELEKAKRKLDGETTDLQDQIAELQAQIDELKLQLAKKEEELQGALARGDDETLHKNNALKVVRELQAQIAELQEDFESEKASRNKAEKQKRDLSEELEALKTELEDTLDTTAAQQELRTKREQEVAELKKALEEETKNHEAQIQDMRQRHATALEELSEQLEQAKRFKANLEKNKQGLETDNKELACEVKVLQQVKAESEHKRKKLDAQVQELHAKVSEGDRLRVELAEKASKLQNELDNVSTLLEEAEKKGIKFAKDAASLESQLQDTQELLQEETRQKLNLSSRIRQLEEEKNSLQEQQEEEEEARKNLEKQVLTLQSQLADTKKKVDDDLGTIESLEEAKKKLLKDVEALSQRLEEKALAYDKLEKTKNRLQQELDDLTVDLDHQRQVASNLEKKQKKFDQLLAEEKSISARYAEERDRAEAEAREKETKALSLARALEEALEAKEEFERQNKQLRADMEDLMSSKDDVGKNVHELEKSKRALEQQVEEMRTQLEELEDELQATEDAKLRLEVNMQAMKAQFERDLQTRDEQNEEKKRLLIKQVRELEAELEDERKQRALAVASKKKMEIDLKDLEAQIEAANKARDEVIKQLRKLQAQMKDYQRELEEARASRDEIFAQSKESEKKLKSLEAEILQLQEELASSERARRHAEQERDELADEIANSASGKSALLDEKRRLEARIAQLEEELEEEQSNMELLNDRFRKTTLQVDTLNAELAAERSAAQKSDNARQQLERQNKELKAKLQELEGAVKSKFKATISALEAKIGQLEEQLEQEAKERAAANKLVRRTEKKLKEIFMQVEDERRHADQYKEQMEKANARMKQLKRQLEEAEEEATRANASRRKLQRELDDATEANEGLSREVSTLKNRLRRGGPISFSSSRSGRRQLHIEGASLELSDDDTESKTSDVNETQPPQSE

SMILES | pKi [2, 7] | CMMII/NMII Ratio [2] | pKi [2, 8] | Ratio CMMII:NMII Ki/EC50 [2] | pKi [3] | Photostability 4 hours [5] | Photostability 24 hours [5] | Photostability Dark (24 h) [5] | effect in a broad panel of rodent behaviors [1] | Qualitative impact on contractility (e.g. Full = Complete inhibition of contraction) ([4]; 0.1 uM-1.0 uM) | Change in amplitude at 1 uM @ 15 min [4] | Qualitative impact on contractility (e.g. Full = Complete inhibition of contraction) ([4]; 3.0 uM) | pEC50 [6] | Photostability 4 hours (4 h) | Photostability 24 hours (24 h) | Photostability Dark (24 h)
Cc1ccc2c(c1)C(=O)C1(O)CCN(c3ccccc3)C1=N2 (racemic) [racemic Blebb] |  |  |  |  |  |  |  |  | no effect |  |  |  |  |  |  | 
Cc1ccc2c(c1)C(=O)[C@]1(O)CCN(c3cccc(Cl)c3)C1=N2 [BPN-0025059] | 3.92 | 9.25 | 4.33 | 23.5 | 4.66 | 96.1% | 48.6% | >99% |  | 0.1 uM-1.0 uM: No effect; 3.0 uM: | +1.1 ± 0.1% | Small effect |  |  |  | 
O=C1c2cc(Cl)ccc2N=C2N(c3ccccc3)CC[C@@]12O [BPN-0025002] |  | 0.76 | 5.71 |  |  |  |  |  |  |  | −38.9 ± 2.4% |  | 5.59 |  |  | 
Cc1cc2cc(N3CC[C@@]4(O)C(=O)c5cc(C)c(C)cc5N=C34)ccc2o1 [BPN-0026852] | 4.60 |  |  | 9.6 | 5.25 | 62.4% | 3.8% | 85.1% |  |  |  |  |  |  |  | 
Cc1cc2c(cc1C)C(=O)[C@]1(O)CCN(c3cnc4c(c3)OCCN4)C1=N2 [BPN-0028821] | 4.92 |  |  | 12.5 | 6.11 | 89.8% | 29.1% | 98.5% |  |  |  |  |  |  |  | 
Cc1cc(N2CC[C@@]3(O)C(=O)c4c(sc(C)c4C)NC23)ccc1C#N (stereo partly shown) [BPN-0026886] | 4.72 |  |  | 7.0 | 5.38 |  |  |  |  |  |  |  |  | >99% | 98.5% | >99%
Cc1cc2c(cc1C)C(=O)[C@]1(O)CCN(c3ccc4nc(C#N)ccc4c3)C1=N2 [BPN-0027492] |  |  |  | NMII-sel | 5.59 | 95.1% | 66.9% | >99% |  |  |  |  |  |  |  | 
Cc1ccc2cc(N3CC[C@@]4(O)C(=O)c5sc(C)cc5N=C34)ccc2n1 [BPN-0028863] |  |  |  | NMII-sel | 5.55 | 98.8% | 94.7% | 99% |  |  |  |  |  |  |  | 

The remaining compounds from weak to strong by pKi [3], led by results:

pKi [2, 7] | CMMII/NMII Ratio [2] | pKi [2, 8] | Ratio CMMII:NMII Ki/EC50 [2] | pKi [3] | Photostability 4 hours [5] | Photostability 24 hours [5] | Photostability Dark (24 h) [5] | SMILES | effect in a broad panel of rodent behaviors [1] | Qualitative impact on contractility (e.g. Full = Complete inhibition of contraction) ([4]; 0.1 uM-1.0 uM) | Change in amplitude at 1 uM @ 15 min [4] | Qualitative impact on contractility (e.g. Full = Complete inhibition of contraction) ([4]; 3.0 uM) | pEC50 [6] | Photostability 4 hours (4 h) | Photostability 24 hours (24 h) | Photostability Dark (24 h)
3.49 |  |  | 12.3 | 4.21 | >99% | 98.7% | >99% | CCc1cc2c(s1)N=C1N(c3ccc(C#N)c(C)c3)CC[C@@]1(O)C2=O [BPN-0026848] |  |  |  |  |  |  |  | 
4.32 | 3.51 | 4.58 | 6.4 | 5.01 | 82.8% | 4.7% | 99.0% | Cc1cccc(N2CC[C@@]3(O)C(=O)c4cc(C)ccc4N=C23)c1 [BPN-0025100] |  | 0.1 uM-1.0 uM: No effect; 3.0 uM: | −7.8 ± 1.3% | Small effect |  |  |  | 
3.92 |  |  | 12.4 | 5.05 | 87.6% | 35.9% | 97.6% | Cc1ccc2c(c1)C(=O)[C@]1(O)CCN(c3ccc4nc(CO)ccc4c3)C1=N2 [BPN-0028554] |  |  |  |  |  |  |  | 
4.10 |  |  | 8.0 | 5.38 | 92.7% | 64.6% | >99% | Cc1ccc2c(c1)C(=O)[C@]1(O)CCN(c3ccc4nccnc4c3)C1=N2 [BPN-0027330] |  |  |  |  |  |  |  | 
4.30 |  |  | 29.4 | 6.00 | 91.9% | 26.3% | 97.0% | Cc1ccc2c(c1)C(=O)[C@]1(O)CCN(c3ccc4nc(C)ccc4c3)C1=N2 [BPN-0027289] |  |  |  |  |  |  |  | 
4.48 |  |  | 11.4 | 6.35 | 46.3% | 1.0% | 85.0% | Cc1nc2ccc(N3CC[C@@]4(O)C(=O)c5cc(C)c(C)cc5N=C34)cc2o1 [BPN-0027213] |  |  |  |  |  |  |  | 

Reference: US20250163056A1, “NONMUSCLE MYOSIN II INHIBITORS” (The University of Florida Research Foundation, Inc., priority 2018, published 2025)
